According to US8242122B2, “Method and compounds for inhibition of cell death” (University of Central Florida Research Foundation, Inc., priority 2002, dated 2012):
“And” between values parts separate entries of the source, which are not always exact repeats. Equal entries are not always repeated. Where two headings read alike, the source gives them in different places.

Legend:
[1] = molecular target: Rat-Fxa (Rattus norvegicus, UniProt Q63207); conditions: read-out: IC50 Rat-Fxa; two independent experiments
Sequence of Rat-Fxa (Q63207 232-482 limits assumed): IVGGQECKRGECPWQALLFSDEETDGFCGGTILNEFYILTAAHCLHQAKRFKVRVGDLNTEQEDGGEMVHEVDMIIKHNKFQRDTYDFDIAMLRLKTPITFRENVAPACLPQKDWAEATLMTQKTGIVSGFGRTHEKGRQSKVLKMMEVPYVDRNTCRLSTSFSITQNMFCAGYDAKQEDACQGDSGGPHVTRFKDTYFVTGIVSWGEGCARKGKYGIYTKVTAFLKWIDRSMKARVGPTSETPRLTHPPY
Sequence of Rat-Fxa (Q63207 41-180 limits assumed): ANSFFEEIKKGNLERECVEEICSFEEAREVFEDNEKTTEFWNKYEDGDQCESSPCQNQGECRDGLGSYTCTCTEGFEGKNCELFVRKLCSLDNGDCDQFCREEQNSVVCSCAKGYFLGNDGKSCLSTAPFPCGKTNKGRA

[2] = test system: HeLa cells; conditions: HeLa cells, 50, 40 and 20 μM, 2 h
[3] = molecular target: Hu-rec.-FVIIa (FVIIa/tissue factor) (Homo sapiens, UniProt P08709); conditions: read-out: IC50 Hu-rec.-FVIIa; two independent experiments
Sequence of Hu-rec.-FVIIa (FVIIa/tissue factor) (P08709 213-466 limits assumed): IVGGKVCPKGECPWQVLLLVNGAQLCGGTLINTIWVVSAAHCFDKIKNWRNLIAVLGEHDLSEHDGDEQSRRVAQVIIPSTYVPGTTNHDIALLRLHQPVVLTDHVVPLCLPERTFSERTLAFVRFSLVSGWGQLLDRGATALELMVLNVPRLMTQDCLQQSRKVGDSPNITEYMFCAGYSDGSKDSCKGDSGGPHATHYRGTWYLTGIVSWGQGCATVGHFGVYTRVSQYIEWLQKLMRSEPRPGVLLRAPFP
Sequence of Hu-rec.-FVIIa (FVIIa/tissue factor) (P08709 61-212 limits assumed): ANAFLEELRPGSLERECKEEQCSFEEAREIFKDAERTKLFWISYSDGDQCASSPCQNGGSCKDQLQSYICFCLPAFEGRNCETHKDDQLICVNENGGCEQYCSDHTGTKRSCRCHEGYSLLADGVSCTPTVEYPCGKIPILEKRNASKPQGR
Sequence of Hu-rec.-FVIIa (FVIIa/tissue factor) (P13726 33-295 partner): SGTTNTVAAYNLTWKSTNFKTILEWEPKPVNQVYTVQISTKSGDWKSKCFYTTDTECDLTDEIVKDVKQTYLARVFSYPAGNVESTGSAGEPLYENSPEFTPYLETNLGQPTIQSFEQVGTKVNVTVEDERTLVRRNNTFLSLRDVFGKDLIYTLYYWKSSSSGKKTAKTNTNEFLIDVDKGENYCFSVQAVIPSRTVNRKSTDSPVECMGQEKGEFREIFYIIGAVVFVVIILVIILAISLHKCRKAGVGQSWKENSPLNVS

[4] = molecular target: T1, MBP-Omi-(134-458) (Homo sapiens, UniProt O43464)
T1 sequence (O43464 134-458): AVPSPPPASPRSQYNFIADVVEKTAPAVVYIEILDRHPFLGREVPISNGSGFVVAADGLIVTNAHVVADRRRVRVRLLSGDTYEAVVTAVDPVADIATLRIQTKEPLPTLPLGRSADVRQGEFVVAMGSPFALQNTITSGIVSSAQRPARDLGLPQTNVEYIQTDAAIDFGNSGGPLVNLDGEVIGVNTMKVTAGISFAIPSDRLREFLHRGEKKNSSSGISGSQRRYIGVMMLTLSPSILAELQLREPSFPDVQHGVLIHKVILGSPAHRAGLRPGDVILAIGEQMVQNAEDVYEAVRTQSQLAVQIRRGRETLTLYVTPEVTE

[5] = test system: MPT cells; assay: Cisplatin-induced apoptosis in MPT cells, annexin V flow cytometry; conditions: 20 μM or 50 μM ucf-101 for 20 minutes, then cisplatin 6 hours
[6] = test system: HeLa cells; assay: Apoptosis in HeLa cells transfected with Omi-GVPS-GFP; conditions: increasing concentration of ucf-101
[7] = molecular target: T2, His-Omi-134-458 (Homo sapiens, UniProt O43464); conditions: 30 min at 37° C
T2 sequence (O43464 134-458): as above

[8] = molecular target: T2, His-Omi-134-458; conditions: 200 ng His-Omi, 5 μg β-casein, 30 min
[9] = molecular target: Hu-kallikrein (Homo sapiens, UniProt P03952); conditions: read-out: IC50 Hu-kallikrein; two independent experiments
Sequence of Hu-kallikrein (P03952 391-638 limits assumed): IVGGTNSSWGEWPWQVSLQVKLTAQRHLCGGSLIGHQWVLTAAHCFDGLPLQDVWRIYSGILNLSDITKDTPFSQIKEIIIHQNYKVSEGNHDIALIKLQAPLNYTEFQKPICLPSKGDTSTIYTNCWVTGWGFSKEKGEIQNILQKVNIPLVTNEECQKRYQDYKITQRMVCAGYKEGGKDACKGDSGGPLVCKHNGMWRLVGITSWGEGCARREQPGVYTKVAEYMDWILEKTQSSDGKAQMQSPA
Sequence of Hu-kallikrein (P03952 20-390 limits assumed): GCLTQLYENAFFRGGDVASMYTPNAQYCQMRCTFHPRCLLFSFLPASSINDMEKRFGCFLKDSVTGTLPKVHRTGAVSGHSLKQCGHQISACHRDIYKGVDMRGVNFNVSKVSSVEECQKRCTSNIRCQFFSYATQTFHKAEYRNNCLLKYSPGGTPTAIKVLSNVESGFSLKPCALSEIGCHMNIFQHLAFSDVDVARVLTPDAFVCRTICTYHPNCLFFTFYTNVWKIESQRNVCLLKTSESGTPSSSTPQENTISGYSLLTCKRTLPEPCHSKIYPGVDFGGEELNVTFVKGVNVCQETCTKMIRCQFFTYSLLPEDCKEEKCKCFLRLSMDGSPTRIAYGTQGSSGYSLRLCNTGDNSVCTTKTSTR

[10] = test system: Canine-Fxa; conditions: read-out: IC50 Canine-Fxa; two independent experiments
[11] = molecular target: T1, MBP-Omi-(134-458); conditions: 10 μM compound; after two rounds of screening and selection
[12] = molecular target: Bovine-trypsin (Bos taurus, UniProt P00760); conditions: read-out: IC50 Bovine-trypsin; two independent experiments
Sequence of Bovine-trypsin (P00760 24-246): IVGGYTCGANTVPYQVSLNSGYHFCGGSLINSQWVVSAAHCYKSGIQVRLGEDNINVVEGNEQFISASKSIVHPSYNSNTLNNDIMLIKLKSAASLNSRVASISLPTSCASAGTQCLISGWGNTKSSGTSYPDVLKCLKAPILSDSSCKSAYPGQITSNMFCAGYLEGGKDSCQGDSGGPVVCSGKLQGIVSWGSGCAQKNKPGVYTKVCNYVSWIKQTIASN

[13] = molecular target: T2, His-Omi-134-458; conditions: read-out: IC50 on His-Omi; average from three independent experiments
[14] = test system: caspase-9 (−/−) null fibroblasts
[15] = molecular target: Hu-t-PA (Homo sapiens, UniProt P00750); conditions: read-out: IC50 Hu-t-PA; two independent experiments
Sequence of Hu-t-PA (P00750 36-562): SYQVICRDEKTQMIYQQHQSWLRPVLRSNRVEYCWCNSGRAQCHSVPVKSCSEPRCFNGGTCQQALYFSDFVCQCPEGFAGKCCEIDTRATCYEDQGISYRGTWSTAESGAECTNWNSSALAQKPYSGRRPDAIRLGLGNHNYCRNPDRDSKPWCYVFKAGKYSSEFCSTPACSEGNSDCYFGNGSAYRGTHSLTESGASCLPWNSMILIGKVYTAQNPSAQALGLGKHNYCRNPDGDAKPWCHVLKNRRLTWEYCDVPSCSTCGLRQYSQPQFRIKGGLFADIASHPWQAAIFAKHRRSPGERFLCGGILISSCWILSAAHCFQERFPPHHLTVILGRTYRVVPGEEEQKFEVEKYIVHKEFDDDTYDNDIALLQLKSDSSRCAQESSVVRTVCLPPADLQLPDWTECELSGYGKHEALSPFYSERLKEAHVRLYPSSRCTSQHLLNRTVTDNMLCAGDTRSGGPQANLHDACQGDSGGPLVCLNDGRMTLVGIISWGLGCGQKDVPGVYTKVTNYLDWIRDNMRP

[16] = molecular target: Hu-u-PA (Homo sapiens, UniProt P00749); conditions: read-out: IC50 Hu-u-PA; two independent experiments
[17] = molecular target: Hu-thrombin (Homo sapiens, UniProt P00734); conditions: read-out: IC50 Hu-thrombin; two independent experiments
[18] = molecular target: Hu-plasmin (Homo sapiens, UniProt P00747); conditions: read-out: IC50 Hu-plasmin; two independent experiments
Sequence of Hu-plasmin (P00747 581-810 limits assumed): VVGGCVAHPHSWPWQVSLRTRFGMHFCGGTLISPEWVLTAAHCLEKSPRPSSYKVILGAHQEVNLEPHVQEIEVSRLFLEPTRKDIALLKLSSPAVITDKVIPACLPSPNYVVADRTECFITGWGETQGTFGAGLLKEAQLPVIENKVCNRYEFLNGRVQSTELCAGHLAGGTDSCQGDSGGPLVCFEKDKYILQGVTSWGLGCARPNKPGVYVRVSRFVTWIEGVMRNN
Sequence of Hu-plasmin (P00747 97-580 limits assumed): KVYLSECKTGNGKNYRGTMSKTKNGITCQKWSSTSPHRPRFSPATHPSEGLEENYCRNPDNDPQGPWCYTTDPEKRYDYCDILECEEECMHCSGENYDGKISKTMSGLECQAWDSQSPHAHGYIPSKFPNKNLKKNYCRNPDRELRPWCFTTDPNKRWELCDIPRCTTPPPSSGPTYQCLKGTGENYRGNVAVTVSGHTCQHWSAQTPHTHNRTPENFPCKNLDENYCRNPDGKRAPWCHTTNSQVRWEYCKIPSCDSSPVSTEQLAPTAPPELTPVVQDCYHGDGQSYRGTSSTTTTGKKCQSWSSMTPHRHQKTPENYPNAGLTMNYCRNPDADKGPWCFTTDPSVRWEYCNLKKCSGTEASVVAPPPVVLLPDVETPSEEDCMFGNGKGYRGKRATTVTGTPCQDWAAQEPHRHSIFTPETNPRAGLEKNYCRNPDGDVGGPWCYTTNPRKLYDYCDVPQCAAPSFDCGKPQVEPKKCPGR

[19] = molecular target: MBP-L56-(140-480) (L56/HtrA1) (Homo sapiens, UniProt Q92743); conditions: various concentrations; initial 20 min
Sequence of MBP-L56-(140-480) (L56/HtrA1) (Q92743 140-480): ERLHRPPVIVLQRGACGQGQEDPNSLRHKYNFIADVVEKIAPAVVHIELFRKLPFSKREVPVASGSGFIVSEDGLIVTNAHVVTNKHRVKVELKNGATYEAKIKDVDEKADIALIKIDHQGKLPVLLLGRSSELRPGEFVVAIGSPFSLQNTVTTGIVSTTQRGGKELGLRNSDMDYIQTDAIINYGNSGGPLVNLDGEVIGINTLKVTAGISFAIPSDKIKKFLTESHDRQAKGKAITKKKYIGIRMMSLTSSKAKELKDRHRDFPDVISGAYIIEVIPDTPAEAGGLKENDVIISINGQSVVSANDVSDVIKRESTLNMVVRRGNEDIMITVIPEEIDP

**Q.** With `Cc1cccc([N+](=O)[O-])c1-c1ccc(C=C2C(=O)N(c3ccccc3)C(=S)N(c3ccccc3)C2=O)o1` [ucf-101] as the compound, how does the IC50 [1] read?
**A.** The IC50 was 410 µM and > 500 µM.

**Q.** What about the “ability to enter mammalian cells (cytoplasmic fluorescence)” value [2] of the same compound?
**A.** Its value is “cells are permeable to this chemical”.

**Q.** And the IC50 [3]?
**A.** Its IC50 is greater than 500 µM.

**Q.** And the mode of inhibition ([4]; 10 μM ucf-101, various amounts of Dcasein-FITC)?
**A.** Its mode of inhibition is “competitive inhibitor”.

**Q.** What about the “inhibition of MBP-Omi-(134-458) activity” value ([4]; 20 μM compound, 10 μg Dcasein-FITC, 2 μg enzyme) of the same compound?
**A.** The value was “more than 78%”.

**Q.** And the “effect of longer preincubation with enzyme on inhibition (reversibility)” value ([4]; preincubated at 37° C for 40 min or 1 h, various concentrations)?
**A.** The value was “inhibition was reduced”.

**Q.** What about the “cisplatin-induced apoptosis (annexin V positive cells)” value [5] of the same compound?
**A.** Its value is “reduces apoptosis in a dose-dependent manner”.

**Q.** What about the “protease activity and apoptosis induced by Omi-GVPS-GFP” value [6] of the same compound?
**A.** The value was “inhibited the protease activity and apoptosis”.

**Q.** What about the “cleavage of two kidney cytoplasmic polypeptides (14-3-3, annexin V) by His-Omi” value [7] of the same compound?
**A.** The value was “cleavage was prevented”.

**Q.** What about the “inhibition of His-Omi-(134-458) activity against β-casein” value ([8]; 80 μM) of the same compound?
**A.** Its value is “inhibit completely”.

**Q.** What about the “inhibition of His-Omi-(134-458) activity against β-casein” value ([8]; 10-100 μM (lanes 4-9)) of the same compound?
**A.** The value was “concentration-dependent manner”.

**Q.** And the IC50 [9]?
**A.** Its IC50 is 200 µM and 250 µM.

**Q.** And the IC50 [10]?
**A.** The IC50 was 430 µM and 360 µM.

**Q.** What about the “inhibition of MBP-Omi-(134-458) activity” value [11] of the same compound?
**A.** Its value is greater than 50%.

**Q.** What about the IC50 [12] of the same compound?
**A.** The IC50 was greater than 500 µM.

**Q.** What about the IC50 [13] of the same compound?
**A.** Its IC50 is 9.5 µM.

**Q.** And the cytotoxicity ([14]; 25 μM, M-Omi-GFP and control transfected cells)?
**A.** The cytotoxicity was “cytotoxic side effect that caused apoptosis”.

**Q.** And the “reduction of Omi-induced apoptosis” value ([14]; M-Omi-GFP transfected cells, up to 10 μM, 36 h)?
**A.** Its value is “up to 40%”.

**Q.** What about the “effect on control (vector alone) transfected cells” value ([14]; pEGFP-N1 transfected cells, up to 10 μM) of the same compound?
**A.** Its value is “no effect”.

**Q.** And the “apoptosis of fibroblasts transfected with cytoplasmic Omi” value ([14]; treated with ucf-101)?
**A.** Its value is “apoptosis was dramatically reduced”.

**Q.** What about the IC50 [15] of the same compound?
**A.** The IC50 was 390 µM.

**Q.** What about the IC50 [16] of the same compound?
**A.** Its IC50 is no less than 500 µM.

**Q.** What about the IC50 [17] of the same compound?
**A.** The IC50 was greater than 500 µM.

**Q.** And the IC50 [18]?
**A.** The IC50 was > 500 µM and 400 µM.

**Q.** And the “inhibition of L56-(140-480) activity” value [19]?
**A.** Its value is “effective inhibitor of the activity of His-L56-(140-480) but to a lesser extent than His-Omi-(134-458)”.
